Results on five compounds are retold here after patent publication US7405206B2, “Anti-inflammatory androstane derivatives” (Glaxo Group Limited, priority 2001, dated 2008).

Series [1] has as its system A549 cells stably transfected with a reporter gene containing the NF-κB responsive elements from the ELAM gene promoter coupled to sPAP. In words: Functional in vitro assay of glucocorticoid agonist activity (NF-κB/ELAM-sPAP reporter, TNF stimulated). The format is cell-based. Particulars: compound 1 hour at 37° C., then TNF 10 ng/ml for 16 hours. The protocol:
Pharmacological activity was assessed in a functional in vitro assay of glucocorticoid agonist activity which is generally predictive of anti-inflammatory or anti-allergic activity in vivo.
The functional assay was based on that described by K. P. Ray et al., Biochem J. (1997), 328, 707-715. A549 cells stably transfected with a reporter gene containing the NF-κB responsive elements from the ELAM gene promoter coupled to sPAP (secreted alkaline phosphatase) were treated with test compounds at appropriate doses for 1 hour at 37° C. The cells were then stimulated with tumour necrosis factor (TNF, 10 ng/ml) for 16 hours, at which time the amount of alkaline phosphatase produced is measured by a standard colourimetric assay. Dose response curves were constructed from which EC50 values were estimated.

Series [2] can be described thus: Hydrolysis in human plasma. Type of series: in vitro ADME. The note with it: 37°, 5 μg/ml, LC-MS/MS. Here is the method:
Compounds were incubated at 37° in human plasma at a concentration of 5 μg/ml. Aliquots were taken at time 0 and every 30 seconds for the next 10 minutes and were extracted by protein precipitation and analysed by LC-MS/MS.

The test system of a further series is Male CD rats. Put plainly: Rat model of thymus involution (systemic steroid effects). Type of series: in vivo. Particulars: daily for 3 days. The protocol:
Systemic steroid effects were assessed in a rat model of thymus involution. Male CD rats were dosed intra-tracheally daily for 3 days with saline vehicle (20 μl Tween 80 in 100 ml saline) or with a suspension of test compound (dose volume 200 μL). On day 4 the animals were culled and the thymus removed and weighed.

The next series concerns Balb/c mice. Put plainly: Oxazolone induced contact hypersensitivity model (ear swelling). The format is in vivo. The note with it: topical to right ear 1 hour prior to and 3 hours post oxazolone challenge; ear thickness 24 hours post challenge. Here is the method:
Pharmacological activity in vivo was assessed using an oxazolone induced contact hypersensitivity model in Balb/c mice similar to that described by Cumberbatch et al., Immunology (2002), 105, 466-477.
Balb/c female mice (18-20 g) were sensitised to oxazolone by the addition of 50 μl to the shaved right flank, of 2.5% oxazolone in acetone:olive oil (4:1). Control (unsensitised) mice were dosed with acetone:olive oil. Five days later all mice were challenged by the addition of 25 μl of 0.25% oxazolone in acetone olive oil (4:1) to the dorsal surface of both ears under isoflourane anaesthesia. 10 μl of solution of test compound at the appropriate concentration or vehicle (absolute ethanol) was applied to the dorsal surface of the right ear 1 hour prior to and 3 hours post oxazolone challenge under isoflourane anaesthesia. The left ear remained untreated to allow assessment of systemic exposure. Ear thickness measurements were taken using an engineer's micrometer prior to the addition of steroid and again 24 hours post oxazolone challenge. Results expressed as the percentage inhibition of ear swelling, from which EC50 values were calculated.

By EC50 is commonly meant the concentration that produces a half-maximal response. In series [1], `Cc1noc(C)c1C(=O)OC1(C(=O)SC2CCOC2=O)C(C)CC2C3CC(F)C4=CC(=O)C=CC4(C)C3(F)C(O)CC21C` (stereo not drawn) [Example 11, 6α,9α-Difluoro-17α-[(3,5-dimethylisoxazole-4-carbonyl)oxy]-11β-hydroxy-16α-methyl-3-oxo-androsta-1,4-diene-17β-carbothioic acid S-(2-oxo-tetrahydro-furan-3S-yl)ester] displayed an EC50 of 0.028 µM.
Same read-out and setting: the same measure for `CC1CC2C3CC(F)C4=CC(=O)C=CC4(C)C3(F)C(O)CC2(C)C1(OC(=O)c1cc(Cl)sc1Cl)C(=O)SC1CCOC1=O` (stereo not drawn) [Example 15, 17α-[(2,5-Dichlorothiophene-3-carbonyl)oxy]-6α,9α-difluoro-11β-hydroxy-16α-methyl-3-oxo-androsta-1,4-diene-17β-carbothioic acid S-(2-oxo-tetrahydro-furan-3S-yl)ester]: 0.016 µM; for `COc1c(C(=O)OC2(C(=O)SC3CCOC3=O)C(C)CC3C4CC(F)C5=CC(=O)C=CC5(C)C4(F)C(O)CC32C)csc1Cl` (stereo not drawn) [Example 12, 17α-[(5-Chloro-4-methoxy-thiophene-3-carbonyl)oxy]-6α,9α-difluoro-11β-hydroxy-16α-methyl-3-oxo-androsta-1,4-diene-17β-carbothioic acid S-(2-oxo-tetrahydro-furan-3S-yl)ester]: 0.04 µM.
What is called half-life is the time in which the quantity being followed falls by half. Read a high half-life as slow decline. In turn, `C[C@@H]1C[C@H]2[C@@H]3C[C@H](F)C4=CC(=O)C=C[C@]4(C)[C@@]3(F)[C@@H](O)C[C@]2(C)[C@@]1(OC(=O)c1ccco1)C(=O)S[C@H]1CCOC1=O` [Example 1, 6α,9α-Difluoro-17α-[(2-furanylcarbonyl)oxy]-11β-hydroxy-16α-methyl-3-oxo-androsta-1,4-diene-17β-carbothioic acid S-(2-oxo-tetrahydro-furan-3S-yl)ester] came in with a half-life in series [2] of 1.2 min. For the same compound, the “effect on thymus weight” value with Male CD rats (1000 μg/day intra-tracheally) is recorded as “no effect”. In addition, in the series on Balb/c mice, the “EC50 (inhibition of ear swelling)” value was found to be 0.3 µg.
Consider `CCCC1O[C@@H]2C[C@H]3[C@@H]4CCC5=CC(=O)C=C[C@]5(C)[C@H]4[C@@H](O)C[C@]3(C)[C@]2(C(=O)CO)O1` (stereo partly shown) [budesonide, reference compound], for which the “reduction in thymus weight” value in the series on Male CD rats (100 mg/day intra-tracheally) was determined as 65%.
